Reference: ChEMBL document CHEMBL5380833 (J Med Chem, 2023)
pEC50: −log10 of the molar value. Calls of active or inactive are those of the source. The rule behind the calls is not given here.

How the values were obtained:
[1] = target: Tyrosine-protein kinase Tec (Homo sapiens) (UniProt P42680); assay: Induction of degradation of TEC in human Jurkat cells at 0.01 to 10 uM by immunoblotting analysis; conditions: dose 0.01-10 µM
[2] = target: Tyrosine-protein kinase BTK (Homo sapiens) (UniProt Q06187); assay: Induction of degradation of BTK in human Ramos cells at 0.01 to 10 uM by immunoblotting analysis; type: cell-based; conditions: dose 0.01-10 µM
[3] = target: T1, Tyrosine-protein kinase TXK (Homo sapiens) (UniProt P42681); assay: Induction of degradation of RLK in human Jurkat cells at 0.01 to 10 uM by immunoblotting analysis; type: cell-based; conditions: dose 0.01-10 µM
T1 sequence (whole entry): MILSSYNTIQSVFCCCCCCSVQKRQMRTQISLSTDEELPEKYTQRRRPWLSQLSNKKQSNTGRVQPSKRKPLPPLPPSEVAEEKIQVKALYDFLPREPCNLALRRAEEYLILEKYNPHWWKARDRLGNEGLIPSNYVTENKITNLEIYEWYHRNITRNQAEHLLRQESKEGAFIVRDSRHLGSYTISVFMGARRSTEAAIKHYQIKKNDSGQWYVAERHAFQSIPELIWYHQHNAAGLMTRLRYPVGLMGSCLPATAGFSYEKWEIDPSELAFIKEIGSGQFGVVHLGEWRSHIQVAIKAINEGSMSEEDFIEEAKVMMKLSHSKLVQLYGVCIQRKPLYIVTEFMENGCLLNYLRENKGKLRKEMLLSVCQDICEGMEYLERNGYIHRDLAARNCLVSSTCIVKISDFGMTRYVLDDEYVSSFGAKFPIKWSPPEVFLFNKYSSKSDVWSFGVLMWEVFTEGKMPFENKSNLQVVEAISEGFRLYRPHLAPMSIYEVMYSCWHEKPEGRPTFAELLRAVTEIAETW

[4] = target: T2, Protein cereblon/Tyrosine-protein kinase ITK/TSK (Homo sapiens, UniProt Q08881+Q96SW2); assay: PROTAC activity at CRBN/ITK in human Jurkat cells assessed as induction of ITK degradation at 100 nM pretreated with 5-amino-2-(2,6-dioxopiperidin-3-yl)isoindoline-1,3-dione for 1 hr followed by compound addition and measured after 2 hrs by Western blot analysis; type: cell-based
Target sequence in this assay (Q08881 whole entry, looked up): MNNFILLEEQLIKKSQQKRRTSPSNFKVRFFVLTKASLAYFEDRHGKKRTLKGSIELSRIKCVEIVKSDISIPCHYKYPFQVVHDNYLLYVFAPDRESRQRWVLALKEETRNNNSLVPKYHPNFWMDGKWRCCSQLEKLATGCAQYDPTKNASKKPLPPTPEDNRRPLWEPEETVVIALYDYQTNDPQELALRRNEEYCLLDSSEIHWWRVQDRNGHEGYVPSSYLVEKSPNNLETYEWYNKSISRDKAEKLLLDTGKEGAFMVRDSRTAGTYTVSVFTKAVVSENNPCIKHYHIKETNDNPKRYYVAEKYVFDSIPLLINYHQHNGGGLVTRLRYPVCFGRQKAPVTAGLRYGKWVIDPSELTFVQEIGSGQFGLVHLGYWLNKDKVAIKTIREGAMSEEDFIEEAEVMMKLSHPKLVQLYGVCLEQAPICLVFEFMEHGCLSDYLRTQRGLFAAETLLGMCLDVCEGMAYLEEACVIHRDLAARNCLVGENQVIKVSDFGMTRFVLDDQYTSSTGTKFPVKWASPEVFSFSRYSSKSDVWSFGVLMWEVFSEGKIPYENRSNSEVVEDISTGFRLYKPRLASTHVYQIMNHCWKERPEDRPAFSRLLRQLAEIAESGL
Target sequence in this assay (Q96SW2 whole entry, looked up): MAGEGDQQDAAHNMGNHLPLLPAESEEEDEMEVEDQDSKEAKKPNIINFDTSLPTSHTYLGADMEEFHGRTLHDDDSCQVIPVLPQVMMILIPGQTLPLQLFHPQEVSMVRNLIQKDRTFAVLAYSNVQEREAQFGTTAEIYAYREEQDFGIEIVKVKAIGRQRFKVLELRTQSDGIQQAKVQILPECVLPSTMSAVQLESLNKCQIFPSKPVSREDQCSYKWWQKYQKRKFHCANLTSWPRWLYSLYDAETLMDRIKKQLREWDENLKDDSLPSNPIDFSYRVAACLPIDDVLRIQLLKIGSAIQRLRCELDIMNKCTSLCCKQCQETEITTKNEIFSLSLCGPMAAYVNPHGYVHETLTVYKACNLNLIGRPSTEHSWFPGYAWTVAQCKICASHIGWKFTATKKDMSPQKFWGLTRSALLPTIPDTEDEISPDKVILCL

[5] = Toxicity in Balb/c mouse assessed as drug tolerance at 10 mg/kg, ip measured upto 24 hrs by LC-MS/MS analysis; type: organism-based; conditions: in vivo
[6] = target: T2, Protein cereblon/Tyrosine-protein kinase ITK/TSK; assay: PROTAC activity at CRBN/ITK in Jurkat cells assessed as induction of ITK degradation at 100 nM pretreated with GNE-9822 for 1 hr followed by compound addition and measured after 2 hrs by Western blot analysis; type: cell-based
Target sequence in this assay (Q08881 whole entry, looked up): as the sequence (Q08881 whole entry, looked up) above
Target sequence in this assay (Q96SW2 whole entry, looked up): as the sequence (Q96SW2 whole entry, looked up) above

[7] = Clearance in Balb/c mouse at 10 mg/kg, ip measured upto 24 hrs by LC-MS/MS analysis; type: ADME, organism-based; conditions: in vivo
[8] = target: T2, Protein cereblon/Tyrosine-protein kinase ITK/TSK; assay: PROTAC activity at CRBN/ITK in human Jurkat cells assessed as induction of ITK degradation by Western blot analysis; type: cell-based; conditions: read-out: EC50
Target sequence in this assay (Q08881 whole entry): as the sequence (Q08881 whole entry, looked up) above
Target sequence in this assay (Q96SW2 whole entry): as the sequence (Q96SW2 whole entry, looked up) above

[9] = Cmax in Balb/c mouse at 5 mg/kg, iv measured upto 24 hrs by LC-MS/MS analysis; type: ADME, organism-based; set-up: time < 24 hrs, dose 5 mg/kg, route iv; conditions: in vivo
[10] = Toxicity in Balb/c mouse assessed as side effects at 5 mg/kg, iv measured upto 24 hrs by LC-MS/MS analysis; type: organism-based; conditions: in vivo
[11] = Toxicity in Balb/c mouse assessed as drug tolerance at 5 mg/kg, iv measured upto 24 hrs by LC-MS/MS analysis; type: organism-based; conditions: in vivo
[12] = target: Tyrosine-protein kinase Yes (Homo sapiens) (UniProt P07947); assay: Induction of degradation of YES in human Ramos cells at 0.01 to 10 uM by immunoblotting analysis; type: cell-based; conditions: dose 0.01-10 µM
Jurkat [13] = assay: Induction of degradation of RSK in human Jurkat cells at 0.01 to 10 uM by immunoblotting analysis; type: cell-based; conditions: dose 0.01-10 µM
[14] = Volume of distribution at steady state in Balb/c mouse at 5 mg/kg, iv measured upto 24 hrs by LC-MS/MS analysis; type: ADME, organism-based; conditions: in vivo, read-out: Vdss
[15] = target: T2, Protein cereblon/Tyrosine-protein kinase ITK/TSK; assay: PROTAC activity at CRBN/ITK in human Jurkat cells assessed as reduction in ITK protein at 100 nM measured within 4 hrs; type: cell-based
Target sequence in this assay (Q08881 whole entry, looked up): as the sequence (Q08881 whole entry, looked up) above
Target sequence in this assay (Q96SW2 whole entry, looked up): as the sequence (Q96SW2 whole entry, looked up) above

[16] = Cmax in Balb/c mouse at 10 mg/kg, ip measured upto 24 hrs by LC-MS/MS analysis; type: ADME, organism-based; set-up: dose 10 mg/kg, time < 24 hrs, route ip; conditions: in vivo
[17] = target: T2, Protein cereblon/Tyrosine-protein kinase ITK/TSK; assay: PROTAC activity at CRBN/ITK in human Jurkat cells assessed as induction of ITK degradation at 100 nM measured after 2 hrs by Western blot analysis; type: cell-based
Target sequence in this assay (Q08881 whole entry, looked up): as the sequence (Q08881 whole entry, looked up) above
Target sequence in this assay (Q96SW2 whole entry, looked up): as the sequence (Q96SW2 whole entry, looked up) above

[18] = AUC (0 to infinity) in Balb/c mouse at 5 mg/kg, iv measured upto 24 hrs by LC-MS/MS analysis; type: ADME, organism-based; set-up: time < 24 hrs, dose 5 mg/kg, route iv; conditions: in vivo
[19] = target: T2, Protein cereblon/Tyrosine-protein kinase ITK/TSK; assay: PROTAC activity at CRBN/ITK in human Jurkat cells assessed as induction of ITK degradation at 100 nM pretreated with MLN4924 for 1 hr followed by compound addition and measured after 2 hrs by Western blot analysis; type: cell-based
Target sequence in this assay (Q08881 whole entry, looked up): as the sequence (Q08881 whole entry, looked up) above
Target sequence in this assay (Q96SW2 whole entry, looked up): as the sequence (Q96SW2 whole entry, looked up) above

Jurkat [20] = assay: Inhibition of TCR signalling in human Jurkat cells assessed as reduction in PLCgamma1 phosphorylation preincubated with cells for 12 hrs followed by anti-CD-2 antibody stimulation for 5 mins by Western blot analysis; type: cell-based; conditions: dose 0.01-3 µM
[21] = Half life in Balb/c mouse at 5 mg/kg, iv measured upto 24 hrs by LC-MS/MS analysis; type: ADME, organism-based; conditions: in vivo
[22] = AUC (0 to t) in Balb/c mouse at 5 mg/kg, iv measured upto 24 hrs by LC-MS/MS analysis; type: ADME, organism-based; set-up: dose 5 mg/kg, time < 24 hrs, route iv; conditions: in vivo
[23] = Half life in Balb/c mouse at 10 mg/kg, ip measured upto 24 hrs by LC-MS/MS analysis; type: ADME, organism-based; conditions: in vivo
[24] = target: T3, Cytoplasmic tyrosine-protein kinase BMX (Homo sapiens) (UniProt P51813); assay: Induction of degradation of BMX in human Jurkat cells at 0.01 to 10 uM by immunoblotting analysis; type: cell-based; conditions: dose 0.01-10 µM
T3 sequence (whole entry): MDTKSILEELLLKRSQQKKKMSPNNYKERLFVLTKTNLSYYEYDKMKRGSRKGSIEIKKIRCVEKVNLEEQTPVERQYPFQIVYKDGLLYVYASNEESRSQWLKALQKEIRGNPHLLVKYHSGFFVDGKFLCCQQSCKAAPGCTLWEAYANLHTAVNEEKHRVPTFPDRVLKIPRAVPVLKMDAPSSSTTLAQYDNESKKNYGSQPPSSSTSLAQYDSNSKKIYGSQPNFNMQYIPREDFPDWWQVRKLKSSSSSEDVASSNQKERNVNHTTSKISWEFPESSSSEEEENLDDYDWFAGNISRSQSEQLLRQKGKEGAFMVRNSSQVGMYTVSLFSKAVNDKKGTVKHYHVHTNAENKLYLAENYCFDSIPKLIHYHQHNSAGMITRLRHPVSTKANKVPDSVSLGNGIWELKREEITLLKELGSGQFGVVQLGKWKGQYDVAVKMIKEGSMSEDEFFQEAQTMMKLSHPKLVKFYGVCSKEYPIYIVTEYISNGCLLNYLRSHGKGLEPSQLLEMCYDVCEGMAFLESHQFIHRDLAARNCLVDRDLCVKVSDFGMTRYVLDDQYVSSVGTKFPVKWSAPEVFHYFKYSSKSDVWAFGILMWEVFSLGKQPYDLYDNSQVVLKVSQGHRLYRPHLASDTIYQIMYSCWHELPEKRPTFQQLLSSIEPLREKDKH

Chain of Tyrosine-protein kinase Yes (Homo sapiens) (P07947 2-543 limits assumed): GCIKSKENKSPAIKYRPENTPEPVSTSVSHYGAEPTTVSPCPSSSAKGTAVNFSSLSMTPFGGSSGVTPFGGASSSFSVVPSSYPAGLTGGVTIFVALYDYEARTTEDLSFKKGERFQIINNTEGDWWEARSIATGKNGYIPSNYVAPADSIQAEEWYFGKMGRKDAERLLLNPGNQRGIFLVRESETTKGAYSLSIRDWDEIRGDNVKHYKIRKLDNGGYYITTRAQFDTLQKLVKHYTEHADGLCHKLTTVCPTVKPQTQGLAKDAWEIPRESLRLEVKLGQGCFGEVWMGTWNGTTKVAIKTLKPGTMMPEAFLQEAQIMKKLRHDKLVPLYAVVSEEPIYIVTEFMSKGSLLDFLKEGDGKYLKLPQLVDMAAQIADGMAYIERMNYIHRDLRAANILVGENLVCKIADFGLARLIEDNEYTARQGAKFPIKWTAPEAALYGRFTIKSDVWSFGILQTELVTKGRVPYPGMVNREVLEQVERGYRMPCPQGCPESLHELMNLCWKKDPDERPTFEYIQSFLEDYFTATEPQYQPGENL
Chain of Tyrosine-protein kinase BTK (Homo sapiens) (Q06187 whole entry): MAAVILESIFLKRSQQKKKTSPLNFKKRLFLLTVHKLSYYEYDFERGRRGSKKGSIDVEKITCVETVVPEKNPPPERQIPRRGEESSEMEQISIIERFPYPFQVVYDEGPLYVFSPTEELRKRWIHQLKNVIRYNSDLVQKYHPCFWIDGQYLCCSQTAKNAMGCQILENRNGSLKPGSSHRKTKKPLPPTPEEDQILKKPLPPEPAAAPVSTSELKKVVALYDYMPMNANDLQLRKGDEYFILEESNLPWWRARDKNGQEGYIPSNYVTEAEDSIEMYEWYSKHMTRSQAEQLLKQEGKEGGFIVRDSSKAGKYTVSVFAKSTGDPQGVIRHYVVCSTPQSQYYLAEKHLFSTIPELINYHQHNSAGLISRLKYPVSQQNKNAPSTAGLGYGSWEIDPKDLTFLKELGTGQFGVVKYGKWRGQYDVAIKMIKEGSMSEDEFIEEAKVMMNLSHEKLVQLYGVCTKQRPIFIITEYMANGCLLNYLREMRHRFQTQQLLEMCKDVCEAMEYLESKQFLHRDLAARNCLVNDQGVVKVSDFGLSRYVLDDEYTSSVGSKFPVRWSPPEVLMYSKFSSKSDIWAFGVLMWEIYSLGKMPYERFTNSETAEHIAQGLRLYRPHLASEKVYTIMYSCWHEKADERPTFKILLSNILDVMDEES
Chain of Tyrosine-protein kinase Tec (Homo sapiens) (P42680 whole entry, looked up): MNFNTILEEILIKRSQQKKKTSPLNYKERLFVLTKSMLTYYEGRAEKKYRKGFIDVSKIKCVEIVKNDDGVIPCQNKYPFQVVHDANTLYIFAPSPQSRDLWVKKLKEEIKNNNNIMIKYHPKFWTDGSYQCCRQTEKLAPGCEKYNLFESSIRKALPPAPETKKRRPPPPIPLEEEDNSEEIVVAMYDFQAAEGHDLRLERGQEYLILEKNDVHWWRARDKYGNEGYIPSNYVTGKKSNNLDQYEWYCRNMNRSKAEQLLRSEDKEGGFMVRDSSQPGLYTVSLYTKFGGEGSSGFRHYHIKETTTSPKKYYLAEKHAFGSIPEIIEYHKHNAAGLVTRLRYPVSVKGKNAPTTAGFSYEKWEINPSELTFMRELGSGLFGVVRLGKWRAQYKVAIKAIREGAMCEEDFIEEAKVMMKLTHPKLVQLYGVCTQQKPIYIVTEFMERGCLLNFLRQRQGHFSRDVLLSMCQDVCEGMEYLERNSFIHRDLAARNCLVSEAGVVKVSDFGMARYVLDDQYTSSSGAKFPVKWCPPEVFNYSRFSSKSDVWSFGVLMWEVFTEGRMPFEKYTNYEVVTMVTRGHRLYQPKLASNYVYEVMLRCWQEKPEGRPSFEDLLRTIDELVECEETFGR

CN(CCCCCC(=O)Nc1ccc2c(c1)C(=O)N(C1CCC(=O)NC1=O)C2=O)CC[C@@H](c1ccccc1)n1cc(NC(=O)c2n[nH]c3c2CCC(C)(C)C3)cn1.O=C(O)C(F)(F)F (some centres undefined)
Activity [1]: inactive | Activity [2]: inactive | Activity [3]: inactive | Activity [4]: inactive | Activity [5]: Non-Toxic | Activity [6]: inactive | CL/F [7]: 109 mL/min/kg | pEC50 [8]: 8.15 | Cmax [9]: 3320 ng/mL | Activity [10]: Non-Toxic | Activity [11]: Non-Toxic | Activity [12]: inactive | Activity (Jurkat [13]): inactive | Vd [14]: 12.9 L/kg | Activity [15]: Active | Cmax [16]: 1240 ng/mL | Activity [17]: Active | AUC(0-inf) [18]: 1080 ng·h/mL | Activity [19]: inactive | inhibition (Jurkat [20]): Dose-Dependent Effect | half-life [21]: 1.88 h | AUC(0-t) at 24 h [22]: 1080 ng·h/mL | half-life [23]: 1.95 h | Activity [24]: inactive
